pEC50: −log10 of the molar value.
Legend:
[1] = molecular target: T1, Cytochrome P450 11B1, mitochondrial (Homo sapiens, UniProt P15538); assay: Inhibition Assay
T1 sequence (P15538 whole entry): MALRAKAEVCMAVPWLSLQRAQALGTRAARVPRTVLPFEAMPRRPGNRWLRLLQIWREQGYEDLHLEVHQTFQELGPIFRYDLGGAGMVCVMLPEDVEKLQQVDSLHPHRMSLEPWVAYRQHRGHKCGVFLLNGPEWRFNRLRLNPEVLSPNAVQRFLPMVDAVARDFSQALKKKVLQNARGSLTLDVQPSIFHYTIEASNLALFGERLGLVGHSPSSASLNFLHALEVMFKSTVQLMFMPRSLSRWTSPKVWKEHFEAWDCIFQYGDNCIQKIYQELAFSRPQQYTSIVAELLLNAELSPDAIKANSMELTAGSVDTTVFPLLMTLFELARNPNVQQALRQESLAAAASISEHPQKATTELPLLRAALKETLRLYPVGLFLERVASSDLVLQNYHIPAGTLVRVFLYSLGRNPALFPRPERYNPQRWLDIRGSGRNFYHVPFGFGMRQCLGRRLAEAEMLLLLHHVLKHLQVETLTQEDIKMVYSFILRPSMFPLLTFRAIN
Text: (§1) The expression plasmids contains the ORF for either human/cyno CYP11B1 or CYP11B2 under the control of a suitable promoter (CMV-promoter) and a suitable resistance marker (neomycin). Using standard techniques the expression plasmid is transfected into G-402 cells and these cells are then selected for expressing the given resistance markers. Individual cell-clones are then selected and assessed for displaying the desired enzymatic activity using 11-Deoxycorticosterone (Cyp11B2) or 11-Deoxycortisol (Cyp11B1) as a substrate.G-402 cells expressing CYP11 constructs were established as described above and maintained in McCoy's 5a Medium Modified, ATCC Catalog No. 30-2007 containing 10% FCS and 400 μg/ml G418 (Geneticin) at 37° C. under an atmosphere of 5% CO2/95% air. Cellular enzyme assays were performed in DMEM/F12 medium containing 2.5% charcoal treated FCS and appropriate concentration of substrate (0.3-10 uM 11-Deoxycorticosterone, 11-Deoxycortisol or Corticosterone). For assaying enzymatic activity, cells were plated onto 96 well plates and incubated for 16 h. An aliquot of the supernatant is then transferred and analyzed for the concentration of the expected product (Aldosterone for CYP11B2; Cortisol for CYP11B1). The concentrations of these steroids can be determined using HTRF assays from CisBio analyzing either Aldosterone or Cortisol.

[2] = molecular target: T2, Cytochrome P450 11B2, mitochondrial (Homo sapiens, UniProt P19099); assay: Inhibition Assay
T2 sequence (P19099 whole entry): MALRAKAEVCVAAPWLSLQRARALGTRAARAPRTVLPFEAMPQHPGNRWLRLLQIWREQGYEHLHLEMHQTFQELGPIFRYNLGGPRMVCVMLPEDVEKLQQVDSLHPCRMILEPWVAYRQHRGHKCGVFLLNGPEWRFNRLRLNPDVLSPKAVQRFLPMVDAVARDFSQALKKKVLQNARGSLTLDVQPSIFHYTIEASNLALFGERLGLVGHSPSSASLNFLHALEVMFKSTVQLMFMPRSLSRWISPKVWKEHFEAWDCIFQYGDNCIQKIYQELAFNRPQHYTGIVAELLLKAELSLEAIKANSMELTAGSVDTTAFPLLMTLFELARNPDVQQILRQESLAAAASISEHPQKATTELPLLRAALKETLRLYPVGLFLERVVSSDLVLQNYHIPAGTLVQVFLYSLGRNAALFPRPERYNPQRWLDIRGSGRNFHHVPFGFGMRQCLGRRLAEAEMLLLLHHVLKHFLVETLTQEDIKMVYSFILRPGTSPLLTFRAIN
Text: as §1

With `CC(=O)N1CCC([C@H](C)c2c[nH]nc2-c2ccc3c(c2F)CCC(=O)N3C)CC1` (single isomer, unassigned) [US9796702, 37] the pEC50 [1] was 8.34.

In the case of `CC(=O)N1CCC(C(C)c2c[nH]nc2-c2cc3c(cc2F)N(C)C(=O)CC3)CC1` (racemic) [US9796702, 35], the pEC50 [2] was 11.30.

Work on `CCS(=O)(=O)N1CCC(Cc2c[nH]nc2-c2ccc3c(c2F)CCC(=O)N3C)CC1` [US9796702, 22] yielded a pEC50 [2] of 11.70.

`CC(=O)N1CCC(C(C)c2c[nH]nc2-c2ccc3c(c2F)CCC(=O)N3C)CC1` (stereo not given) [US9796702, 36] gave a pEC50 [2] of 11.52.

In the case of `CN1C(=O)CCc2cc(-c3n[nH]cc3CC3CCN(C(=O)c4cnn(C)c4)CC3)ccc21` [US9796702, 17], the pEC50 [2] was 11.15.

Source: BindingDB's records for patent US9796702 (Hoffmann-La Roche, 2017)
